Tests used:
Assay in all cases: relative viability (nuclei count vs DMSO), 5 days (fraction); higher = more cells survive
[1] = compound: CC1CC(=O)N(C2=CN=C(N=C2N1C3CCCC3)NC4=C(C=C(C=C4)C(=O)NC5CCN(CC5)C)OC)C [NPK76-II-72-1] + N=C(N)NC(=N)NCCc1ccccc1 [Phenformin] (partner 250 µM)
In short: (§1)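 Dosing by pin tool came one day after lung cancer cell lines were seeded in 1536-well plates, using either one drug or a fixed anchor-drug dose plus five library-drug doses (not always all listed) in √10 steps. After 5 days, nuclei were counted on 4× images. Relative viability is treated-well nuclei count divided by vehicle-well nuclei count, and values are medians of duplicate plates.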

[2] = compound: CC1CC(=O)N(C2=CN=C(N=C2N1C3CCCC3)NC4=C(C=C(C=C4)C(=O)NC5CCN(CC5)C)OC)C [NPK76-II-72-1] + CCNC(=O)c1noc(-c2cc(C(C)C)c(O)cc2O)c1-c1ccc(CN2CCOCC2)cc1 [Luminespib] (partner 0.01 µM)
In short: as §1

[3] = compound: CC1CC(=O)N(C2=CN=C(N=C2N1C3CCCC3)NC4=C(C=C(C=C4)C(=O)NC5CCN(CC5)C)OC)C [NPK76-II-72-1] + Nc1ncn([C@H]2C[C@H](O)[C@@H](CO)O2)c(=O)n1 [Decitabine] (partner 2 µM)
In short: as §1

BI-2536 + Linsitinib = compound: CC[C@@H]1C(=O)N(C)c2cnc(Nc3ccc(C(=O)NC4CCN(C)CC4)cc3OC)nc2N1C1CCCC1 [BI-2536] + C[C@]1(O)C[C@@H](c2nc(-c3ccc4ccc(-c5ccccc5)nc4c3)c3c(N)nccn32)C1 [Linsitinib] (partner 1 µM)
In short: as §1

Row | Cell Line | relative viability ([1]; first compound 0.01 µM) | relative viability ([1]; first compound 0.03162 µM) | relative viability ([1]; first compound 0.1 µM) | relative viability ([1]; first compound 0.3162 µM) | relative viability ([1]; first compound 1 µM) | relative viability ([2]; first compound 0.01 µM) | relative viability ([2]; first compound 0.03162 µM) | relative viability ([2]; first compound 0.1 µM) | relative viability ([2]; first compound 0.3162 µM) | relative viability ([2]; first compound 1 µM) | relative viability ([3]; first compound 0.01 µM) | relative viability ([3]; first compound 0.03162 µM) | relative viability ([3]; first compound 0.1 µM) | relative viability ([3]; first compound 0.3162 µM) | relative viability ([3]; first compound 1 µM) | relative viability (BI-2536 + Linsitinib; first compound 0.01 µM) | relative viability (BI-2536 + Linsitinib; first compound 0.03162 µM) | relative viability (BI-2536 + Linsitinib; first compound 0.1 µM) | relative viability (BI-2536 + Linsitinib; first compound 0.3162 µM) | relative viability (BI-2536 + Linsitinib; first compound 1 µM)
1 | NCI-H2342 | 0.606 | 0.472 | 0.675 | 0.394 | 0.623 | 0.653 | 0.6 | 0.67 | 0.548 | 0.709 | 0.686 | 0.694 | 0.759 | 0.668 | 0.78 |  |  |  |  | 
2 | SK-MES-1 | 0.649 | 0.718 | 0.646 | 0.643 | 0.722 | 0.827 | 0.79 | 0.646 | 0.688 | 0.857 | 0.359 | 0.441 | 0.434 | 0.364 | 0.455 | 1.08 | 1.01 | 0.979 | 1.02 | 0.176
3 | HCC-366 | 0.593 | 0.669 | 0.65 | 0.559 | 0.607 |  |  |  |  |  | 0.333 | 0.381 | 0.378 | 0.301 | 0.373 | 0.648 | 0.739 | 0.535 | 0.0173 | 0.0162
4 | 201T | 0.423 | 0.461 | 0.407 | 0.461 | 0.433 | 1.05 | 1.04 | 0.998 | 1.04 | 1.09 | 0.818 | 0.87 | 0.906 | 0.887 | 0.886 | 1.07 | 0.866 | 1.07 | 1 | 0.345
5 | HCC-827 | 0.407 | 0.448 | 0.407 | 0.409 | 0.404 | 0.602 | 0.619 | 0.447 | 0.879 | 0.702 | 0.282 | 0.367 | 0.333 | 0.288 | 0.35 | 1.08 | 1.01 | 0.947 | 0.796 | 0.268
6 | NCI-H647 | 0.46 | 0.676 | 0.629 | 0.623 | 0.533 | 0.189 | 0.188 | 0.143 | 0.202 | 0.23 | 0.379 | 0.364 | 0.418 | 0.367 | 0.454 | 1.15 | 1.15 | 1.11 | 0.108 | 0.0822
7 | NCI-H2023 | 0.43 | 0.422 | 0.455 | 0.398 | 0.43 | 0.766 | 1.03 | 0.871 | 0.594 | 0.888 | 0.203 | 0.218 | 0.225 | 0.215 | 0.227 | 0.67 | 0.667 | 0.606 | 0.0984 | 0.109
8 | NCI-H520 | 0.526 | 0.632 | 0.46 | 0.519 | 0.598 | 0.206 | 0.24 | 0.285 | 0.181 | 0.245 | 0.455 | 0.575 | 0.589 | 0.496 | 0.586 | 0.984 | 0.852 | 0.792 | 0.153 | 0.171
9 | RERF-LC-KJ | 0.405 | 0.416 | 0.425 | 0.388 | 0.52 | 1.33 | 1.41 | 1.3 | 1.21 | 1.33 | 0.783 | 0.762 | 0.82 | 0.617 | 0.699 | 0.969 | 0.913 | 0.829 | 0.522 | 0.199
10 | A-427 | 0.263 | 0.309 | 0.341 | 0.295 | 0.397 | 0.827 | 1.06 | 0.94 | 0.905 | 1.02 | 0.547 | 0.592 | 0.611 | 0.541 | 0.574 | 1.15 | 1.23 | 1.08 | 1.13 | 0.304
11 | NCI-H441 | 0.945 | 0.917 | 0.876 | 0.672 | 0.886 | 0.35 | 0.348 | 0.299 | 0.425 | 0.536 | 0.226 | 0.222 | 0.233 | 0.222 | 0.252 | 0.521 | 0.575 | 0.321 | 0.126 | 0.133
12 | NCI-H1703 |  |  |  |  |  |  |  |  |  |  |  |  |  |  |  | 0.77 | 0.296 | 0.574 | 0.117 | 0.0956
13 | NCI-H1792 | 0.289 | 0.367 | 0.16 | 0.287 | 0.422 | 0.404 | 0.504 | 0.469 | 0.5 | 0.556 |  | 0.683 | 0.42 | 0.534 | 0.515 | 0.585 | 0.634 | 0.495 | 0.444 | 0.131
14 | Calu-6 |  |  |  |  |  |  |  |  |  |  |  |  |  |  |  | 0.923 | 1.02 | 0.816 | 0.0855 | 0.0964
15 | SK-LU-1 | 0.517 | 0.585 | 0.662 | 0.528 | 0.537 | 0.181 | 0.206 | 0.213 | 0.196 | 0.209 | 0.626 | 0.63 | 0.64 | 0.582 | 0.615 | 1.04 | 1.19 | 1.02 | 0.3 | 0.303
16 | PC-3 [JPC-3] | 0.475 | 0.484 | 0.487 | 0.453 | 0.472 | 0.622 | 0.705 | 0.638 | 0.713 | 0.728 | 0.811 |  | 0.882 | 0.878 | 0.95 | 0.974 | 0.899 | 1 | 0.756 | 0.259
17 | EMC-BAC-2 | 0.521 | 0.546 | 0.54 | 0.55 | 0.634 | 1.14 | 1.19 | 1.16 | 1.09 | 1.38 | 0.978 | 1.01 | 0.986 | 0.969 | 1.08 | 0.852 | 0.866 | 0.872 | 0.444 | 0.236
18 | LK-2 | 0.379 | 0.583 | 0.504 | 0.206 | 0.561 | 0.183 | 0.214 | 0.215 | 0.191 | 0.191 | 0.379 | 0.246 | 0.265 | 0.201 | 0.407 | 0.528 | 0.504 | 0.506 | 0.12 | 0.144

From the supplement of paper PMC10307832
